The nature of data set [1]: Ligand protonation constants by pH-potentiometric titration. It counts as physicochemical. The note with it: T = 25 °C, I = 0.15 M NaCl. As for the experimental part: The protonation constants of H2OPC2A have been determined by pH-potentiometry in 0.15 M NaCl ionic medium, and the constants determined are listed in Table 2, along with the corresponding values determined for structurally similar ligands used as comparative benchmarks (H23,9-PC2A, H23,6-PC2A, H21,4-DO2A, H21,7-DO2A, and H21,7-O2DO2A).
Metal stock solutions were prepared from the highest analytical grade chemicals, and their concentrations were determined by complexometric titration with standardized Na2H2EDTA and eriochrome black T indicator in the presence of ascorbic acid, and potassium hydrogen tartrate for MnCl2, murexide indicator for CaCl2 and CuCl2, eriochrome black T for MgCl2 and xylenol orange in the presence of hexamethylenetetramine for the solution of ZnCl2. The concentration of the ligand stock solution was determined by pH-potentiometric titrations. The protonation constants of the ligand were determined by the pH potentiometric titrations with 0.15 M NaOH, using 0.0025 M ligand solutions. The ionic strength was set to 0.15 M by using NaCl. […]
To avoid the effect of CO2, N2 gas was bubbled through the solutions during the titrations process. […] For the calibration of the pH meter, KH-phtalate (pH = 4.005) and borax (pH = 9.177) buffers were used, and the H^+ ion concentrations were calculated from the measured pH values by applying the method proposed by Irving et al.. […]

Data set [2] can be described thus: Serum stability in Seronorm followed by r1p relaxation rates. It counts as in vitro ADME, human. The protocol: Serum “stability” of the [Mn(3,9-OPC2A)] chelate: during MRI investigations, the CAs are injected into the vein of the patients and, following their injection, the complexes can meet with different proteins present in the blood serum, which are known to bind the essential metal ions in relatively strong manner. Therefore, the plasma proteins can potentially initiate transmetalation/transchelation reactions, especially in the case of Mn(II) complexes whose thermodynamic stability is lower than the stability of the chelates formed with essential metal ions, such as Zn(II) or Cu(II). What is more, for some Mn(II) complexes, depending upon the stability constants, of course, the Ca(II) ions present at high concentrations in the serum can initiate the dissociation of the complex, as in the case of [Mn(EGTA)]^2^−, [Mn(BAPTA)]^2^−, or [Mn(CaM)], for instance. In nuclear medicine, serum “stability” studies are routinely performed, in order to access the integrity of the chelates in the given competitive media.
The serum stability of the Mn(II) complexes was studied by following the r1p relaxation rates of the complex over time, using 1.0 mM solutions in SeronormTM (Seronorm = commercially available lyophilized human blood serum, Sero, Stasjonsveien, Norway) at pH = 7.43 and 25 °C.

With `O=C(O)CN1CCOCCN(CC(=O)O)Cc2cccc(n2)C1` [H23,9-OPC2A, 6-Oxa-3,9,15-triazabicyclo(9.3.1)pentadeca-1(15),11,13-triene-3,9-diacetic acid], the “log K3^H” value in data set [1] is 2.13(1). For the same compound, the “Σlog Κ2^H” value in data set [1] (log K1^H + log K2^H) worked out at 15.39.
With `O=C([O-])CN1CCOCCN(CC(=O)[O-])Cc2cccc(n2)C1.[Mn+2]` [[Mn(3,9-OPC2A)]], the “time over which the relaxation rate remained constant in Seronorm” value in data set [2] (1.0 mM complex, pH = 7.43, 25 °C, negligible dissociation) was “at least 80 h”. The “r1p in Seronorm solution” value in data set [2] (1.41 T, 25 °C) is 5.09 mM⁻¹ s⁻¹.

The values are drawn from article PMC8778187, “A New Oxygen Containing Pyclen-Type Ligand as a Manganese(II) Binder for MRI and ^52Mn PET Applications: Equilibrium, Kinetic, Relaxometric, Structural and Radiochemical Studies” (Molecules, 2022).
